Source: paper PMC11267968 (BMC Cancer, 2024)

Tests used:
[1] = test system: subcutaneous GL2612 tumour; design: method as in PMID 29993291; details: with TMZ; mice; cited from earlier work
C6 orthotopic glioma = test system: C6 orthotopic glioma; design: method as in PMID 29993291; details: with TMZ; C6 orthotopic rat model of glioma; cited from earlier work
[2] = test system: orthotopic intracranial GL261 cell tumours; design: method as in PMID 26636389; details: cited from earlier work
U87 cell xenograft = test system: U87 cell xenograft; design: method as in PMID 26636389; details: U87 cell xenograft model; cited from earlier work
[3] = test system: tumour-infiltrating lymphocytes in GL261(luc2) glioblastomas; test: Immune response profiling of tumour-infiltrating lymphocytes by FACS; type: in vivo, C57BL/6J mice; details: day 16, AT-0174 […] mg/kg PO, TMZ 8 mg/kg IP
Source text: On day 16 post-tumour inoculation, satellite animals from each experimental group were euthanized, and tumours were collected. Tumours were processed for organ dissociation using the GentleMACS system (Miltenyi Biotec) and myelin debris removal and homogenate purification through a Percoll gradient. Tumour homogenates were then processed for immunostaining and profiling analysis by flow cytometry for the lymphoid component according to a marker panel including CD45, CD3, CD4, CD8, IFNγ, CD25, and FoxP3. For IFNγ, homogenate samples were first stimulated with a cocktail of Phorbol 12-myristate 13-acetate, Ionomycin and Brefeldin A. Briefly, to assess viability, cells were stained with LIVE/DEAD Zombie NIR (Biolegend). For simultaneous detection of the intracellular molecule, after fixed, cells were permeabilized with Foxp3 transcription factor staining buffer set according to the manufacturer’s protocol (eBioscience). All flow antibodies were obtained from BioLegend.

[4] = Body weight in orthotopic glioblastoma mice; type: in vivo, C57BL/6J mice; details: repeated treatment; AT-0174 […] mg/kg PO; TMZ 8 mg/kg IP; compared to vehicle
Source text: Starting from day 6 after tumour cell inoculation, all mice were monitored in vivo until Day 55 for tumour growth (assessed by bioluminescence and measured on days 6, 14, 21, 28, 35, 42, and 49), body weight (monitored 3 times per week until day 18, and then daily from day 19–55), and survival.

What does the source list for `Cc1ccc(NC(=O)Nc2cc(-c3ccccc3-c3nn[nH]n3)ccc2N(CC(C)C)CC(C)C)cc1` [PCC0208009]?
Subcutaneous tumour growth [1]: significantly synergised with TMZ; Survival (C6 orthotopic glioma): improved survival

For `Cn1cc(C[C@H](N)C(=O)O)c2ccccc21` [1-MT, 1-methyltryptophan], which Survival duration ([2]; TMZ in combination with 1-MT, compared to TMZ alone) is on record?
Its Survival duration is “slight increase in the survival duration”.

And the “Efficacy when given alone” value ([2]; orthotopic GL261 model, given alone)?
The value was “ineffective”.

And the “Efficacy when given alone” value (U87 cell xenograft)?
Its value is “ineffective”.

For `Cn1nnc2c(C(N)=O)ncn2c1=O` [TMZ, Temozolomide], which “Cytotoxic CD8+ T cells in tumour” value ([3]; vs control) is on record?
The value was “non-significant increase”.

And the “Tregs (CD4+CD25+FoxP3+ cells) in tumour” value ([3]; vs vehicle control)?
The value was “higher”.

What about the “Effect on body weight” value [4] of the same compound?
Its value is “mild (though non-significant) drop in body weight”.
